Data on 21 compounds can be found in ChEMBL document CHEMBL1157152, “Kinetic parameters and recognition of thymidine analogues with varying functional groups by thymidine phosphorylase” (Bioorg Med Chem, 2008).

Test [1] deals with Thymidine phosphorylase (Escherichia coli K-12) (UniProt P07650). As to the kind of experiment: Activity of Escherichia coli thymidine phosphorylase assessed as drug phosphorylation after 1 hr. Details: concentration or dose not given beside the values.
Test [2] has the same target. As to the kind of experiment: Activity of Escherichia coli thymidine phosphorylase assessed as drug phosphorylation after 2 hrs. Details: concentration or dose not given beside the values.
For test [3] the target is unchanged. Put plainly: Activity of 10 U/mL Escherichia coli thymidine phosphorylase assessed as drug phosphorylation after 24 hrs.
For test [4] the target is unchanged. Put plainly: Activity of 10 U/mL Escherichia coli thymidine phosphorylase assessed as drug phosphorylation after 1 week.
The target is the same in test [5]. As to the kind of experiment: Activity of Escherichia coli thymidine phosphorylase assessed as drug phosphorylation after 24 hrs.
For test [6] the target is unchanged. Put plainly: Activity of 1 U/mL Escherichia coli thymidine phosphorylase assessed as drug phosphorylation after 1 hr.

Chain of Thymidine phosphorylase (Escherichia coli K-12) (P07650 whole entry, looked up): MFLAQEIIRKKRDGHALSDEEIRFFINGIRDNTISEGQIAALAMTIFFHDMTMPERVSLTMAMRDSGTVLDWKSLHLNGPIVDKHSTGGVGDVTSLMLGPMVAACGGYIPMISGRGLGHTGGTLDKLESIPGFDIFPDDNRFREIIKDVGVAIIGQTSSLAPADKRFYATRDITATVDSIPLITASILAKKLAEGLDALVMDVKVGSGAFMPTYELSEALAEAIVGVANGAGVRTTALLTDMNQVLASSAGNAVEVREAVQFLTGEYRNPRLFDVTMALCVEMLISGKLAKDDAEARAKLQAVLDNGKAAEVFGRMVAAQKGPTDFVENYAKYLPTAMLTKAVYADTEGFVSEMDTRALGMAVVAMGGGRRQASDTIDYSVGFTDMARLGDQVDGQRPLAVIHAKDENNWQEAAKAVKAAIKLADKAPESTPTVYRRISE

Consider `Cc1cn([C@H]2C[C@H](O)[C@@H](CN)O2)c(=O)[nH]c1=O`, for which the Activity in test [1] turned out to be 11%; in test [2], 36%.

Take `Cc1cn([C@H]2C[C@H](O)[C@@H](CN=[N+]=[N-])O2)c(=O)[nH]c1=O`: the Activity in test [1] and in test [2] was 0% each time.

For `O=c1ccn([C@@H]2O[C@H](CO)[C@@H](O)[C@H]2O)c(=O)[nH]1`, the results for the Activity in test [1] and in test [2] were 56% and 81%, respectively.

For the compound `Cc1cn([C@H]2C[C@H](O)[C@@H](CO)S2)c(=O)[nH]c1=O`, the Activity in test [3] amounted to 3.8%.

As for `Cc1cn(COC(CO)CO)c(=O)[nH]c1=O`, the Activity in test [3] is 0%.

For `Cc1cnc(=O)n([C@H]2C[C@H](O)[C@@H](CO)O2)c1`, the Activity in test [3] and in test [4] was 0% each time.

On to `Cc1cn([C@H]2CC[C@@H](CO)O2)c(=O)[nH]c1=O`, for which the Activity in test [1] turned out to be 3.2%; in test [2], 6.1%.

For `Cc1nn([C@H]2C[C@H](O)[C@@H](CO)O2)c(=O)[nH]c1=O`, the Activity in test [3] amounted to 5.4%; in test [4] it was 7.9%.

For the compound `Cc1cn([C@H]2C[C@H](N)[C@@H](CO)O2)c(=O)[nH]c1=O`, the Activity is 0.76% in test [1] and 1.5% in test [2].

As for `Cc1cn([C@H]2C[C@H](O)[C@@H](CO)O2)c(=O)[nH]c1=O`, the Activity in test [5] is 82%; in test [1], 86%; in test [2], 86%; in test [6], 86%.

As to `Cc1cn([C@H]2C[C@H](O)[C@@H](C)O2)c(=O)[nH]c1=O`, the Activity came to 68% in test [1] and 91% in test [2].

Consider `Cc1cn([C@H]2C[C@H](O)[C@@H](CI)O2)c(=O)[nH]c1=O`, for which the Activity in test [1] and in test [2] was 0% in each case.

Turning to `Cc1cn([C@H]2C[C@H](O)[C@@H](CS)O2)c(=O)[nH]c1=O`, the Activity in test [1] turned out to be 39%; in test [2], 90%.

Take `Cc1cn([C@H]2C[C@H](S)[C@@H](CO)O2)c(=O)[nH]c1=O`: the Activity in test [1] and in test [2] was 0% in each case.

Turning to `Cc1cn([C@@H]2C[C@H](O)[C@@H](CO)S2)c(=O)[nH]c1=O`, the Activity in test [3] amounted to 0%.

As to `Cc1cn([C@@H]2C[C@H](O)[C@@H](CO)O2)c(=O)[nH]c1=O`, the Activity in test [3] and in test [4] was 0% throughout.

Turning to `Cc1cn([C@H]2C[C@H](O)[C@@H](CCl)O2)c(=O)[nH]c1=O`, the Activity in test [1] was 24%; in test [2] it was 70%.

Turning to `Cc1cn([C@H]2CC(O)[C@@H](CO)O2)c(=O)[nH]c1=O` (single isomer, unassigned), the Activity in test [1] and in test [2] was 0% in each case.

For the compound `O=c1ccn([C@H]2C[C@H](O)[C@@H](CO)O2)c(=O)[nH]1`, the Activity was found to be 83% in test [5] and 88% in test [2].

As for `Nc1ccn([C@H]2C[C@H](O)[C@@H](CO)O2)c(=O)n1`, the Activity in test [3] and in test [4] was 0% throughout.

As to `Cc1cn([C@H]2C[C@H](O)C[C@@H](CO)O2)c(=O)[nH]c1=O`, in test [3], the Activity came to 0%.
